In patent publication US12708607B2, “Thromboxane receptor antagonist formulations” (ATXA THERAPEUTICS LIMITED, priority 2020, dated 2026):
Like-named read-outs stand apart in the source and are kept apart here.

Experiments:
Su/Hx-induced PAH = settings: Mulvaney et al. 2020; cited from earlier work
MCT-induced PAH = settings: Mulvaney et al. 2020; cited from earlier work
[1] = NTP42 levels in NHP plasma after repeat oral dosing; format: in vivo, cynomolgus monkey; settings: for Cmax at 14 days: cynomolgus monkey, plasma, oral, 14 days repeat dosing of NTP42:KVA4 at 200 mg/kg/day
[2] = system: TP (thromboxane A2 receptor); test: whole blood platelet aggregation ex vivo after oral dosing, U46619-induced; format: in vivo, cynomolgus monkey; settings: 100 mg/kg BID oral, Day 14; 1 μM U46619
Method: (§1) Whole blood platelet aggregation assays were performed ex vivo in blood samples taken from the NHPs (n=3) administered 100 mg/kg NTP42:KVA4, BID (200 mg/kg/day) for 14 days. In this type of platelet aggregation assay, a reduction in platelet numbers is indicative of platelet aggregation. Blood was collected prior to (pre-dose), and at 45 min- and 24 h-following the first daily dose, and platelet numbers determined in blood samples at baseline (untreated), and in blood samples incubated with drug vehicle, the thromboxane mimetic, U46619 or, as control, other platelet agonists (e.g., ADP, collagen, thrombin, ristocetin, epinephrine). Baseline platelet counts ranged from 120-190×10^3 platelets/μl.
(§2) Whole blood platelet aggregation assays were performed ex vivo in blood samples taken from the NHPs (n=3) administered 100 mg/kg NTP42:KVA4, BID (200 mg/kg/day) for 14 days. Blood was collected prior to (pre-dose), and at 45 min- and 24 h-following the first daily dose, and platelet numbers determined in blood samples at baseline (untreated), and in blood samples incubated with drug vehicle, the thromboxane mimetic, U46619 or, as control, 50 μM ADP. In this assay, a reduction in platelet numbers is indicative of platelet aggregation.

[3] = system: platelet aggregation induced by other platelet agonists; test: whole blood platelet aggregation ex vivo after oral dosing, other platelet agonists (e.g. 50 μM ADP); format: in vivo, cynomolgus monkey; settings: 100 mg/kg BID oral, Day 14
Method: as §1, §2

In the case of `CC(C)(C)NC(=O)NS(=O)(=O)c1cc(C#N)ccc1Oc1cccc(-c2ccc(OC(F)F)cc2)c1` [NTP42], the “efficacy of non-formulated drug in Su/Hx-induced model of PAH” value (Su/Hx-induced PAH) is given as “has shown efficacy”, the “efficacy of non-formulated drug in MCT-induced model of PAH” value (MCT-induced PAH) is given as “has shown efficacy” and the “NTP42 levels in NHP plasma 24 h post-dosing” value ([1]; 24 h post-dosing, 200 mg/kg/day for 14 days) is given as “still detectable”. For the same compound, the Cmax at 14 days ([1]; read-out: Cmax of NTP42 in NHP plasma) was 13200 ng/mL, the Cmax at 14 days ([1]; read-out: Cmax of NTP42 in NHP plasma, molar equivalent) was 25 µM and the “NTP42 in NHP plasma prior to the first daily dose” value ([1]; pre-dose, Day 14) was “present”. For the same compound, the “TXA2 (U46619)-induced / TP-mediated platelet aggregation ex vivo” value [2] was “selectively inhibited” and the “aggregation induced by other platelet agonists” value [3] was “did not affect”.
